The source of these data is PubChem BioAssay (NCI).

Values joined by “and” are separate entries in the source; they are usually repeats but may differ in a detail not shown here. Equal entries are not always repeated.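 These data come from cells grown in 96-well plates and exposed to compound for 48 hours at five concentrations. Here, GI50 denotes the concentration required for 50% inhibition of growth. TGI: concentration producing complete growth inhibition.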 Some results are limits rather than exact numbers.

Test systems include OVCAR-5 ovarian; OVCAR-4 ovarian; U251 CNS; MCF7 breast; HCC-2998 colon; K-562 leukemia; RXF 393 renal; T-47D breast; 786-0 renal; BT-549 breast; A549 NSCLC; MALME-3M melanoma; UACC-62 melanoma.
Holding throughout (assay): NCI anticancer screen, dose series, 48 h

Consider `COC(=O)C1OC(O[C@H]2CC[C@]3(C)[C@H]4CC=C5[C@@H]6CC(C)(C)CC[C@]6(C(=O)OC6OCC(O)C(O)C6OC6OC(C)C(OC7OCC(O)C(OC8OCC(O)C(O)C8O)C7O)C(OC7OCC(O)C(O)C7O)C6O)CC[C@@]5(C)[C@]4(C)CC[C@H]3C2(C)C)C(O)C(OC2OCC(O)C(O)C2O)C1O` (stereo not given in full), for which the TGI is 22.5 µM and 15.8 µM in the assay with OVCAR-5 ovarian; > 100 µM and 20.2 µM in the assay with OVCAR-4 ovarian; > 100 µM and 20.6 µM with U251 CNS; > 84.5 µM and 20.9 µM with MCF7 breast; 3.13 µM and 3.37 µM in the assay with HCC-2998 colon; 14.9 µM and 19.1 µM with K-562 leukemia. In addition, the TGI with RXF 393 renal is > 67 µM and 35.6 µM; with T-47D breast it was 42.3 µM and 19.2 µM; in the assay on 786-0 renal, > 100 µM and 16.6 µM; in the assay on BT-549 breast it was 8.45 µM and 9.89 µM; with A549 NSCLC it was 11.3 µM and 11.7 µM; with MALME-3M melanoma it was 19.4 µM and 18.3 µM. Besides, the TGI with UACC-62 melanoma was 8.36 µM and 13.7 µM. Also, the GI50 in the assay with RXF 393 renal was 6.36 µM and 13.7 µM.

Turning to `Cc1nc(N/N=C/c2ccccc2Cl)[nH]c(=O)c1CCO`, the TGI in the assay on OVCAR-5 ovarian, in the assay on OVCAR-4 ovarian, in the assay with U251 CNS, in the assay on MCF7 breast, in the assay with HCC-2998 colon and in the assay on K-562 leukemia was more than 100 µM each time. Also, the TGI with RXF 393 renal was 69.9 µM; in the assay with T-47D breast it was more than 100 µM; in the assay with 786-0 renal it was more than 100 µM; with BT-549 breast, more than 100 µM; in the assay on A549 NSCLC, more than 100 µM; in the assay with MALME-3M melanoma, 91.4 µM. For the same compound, in the assay with UACC-62 melanoma, the TGI was more than 100 µM.

With `CNC(=O)N(CCC#N)CCCN(C(=O)NC)c1ccccc1`, the TGI in the assay with OVCAR-5 ovarian, with OVCAR-4 ovarian, in the assay with U251 CNS, with MCF7 breast, in the assay with HCC-2998 colon and in the assay on K-562 leukemia was more than 100 µM in each case. The TGI in the assay with RXF 393 renal, in the assay with T-47D breast, in the assay on 786-0 renal, in the assay with BT-549 breast, in the assay with A549 NSCLC and in the assay on MALME-3M melanoma was more than 100 µM throughout. In the assay on UACC-62 melanoma, this compound returned a TGI of more than 100 µM.

Regarding `CCN(CC)c1ccc2cc(C(=O)Nc3ccccc3)c(=N)oc2c1`, the TGI in the assay with OVCAR-5 ovarian, in the assay on OVCAR-4 ovarian, in the assay on U251 CNS, in the assay with MCF7 breast, with HCC-2998 colon and in the assay with K-562 leukemia was more than 100 µM throughout. Further, the TGI in the assay on RXF 393 renal, in the assay on T-47D breast, in the assay on 786-0 renal, in the assay on BT-549 breast, in the assay with A549 NSCLC and in the assay on MALME-3M melanoma was more than 100 µM each time. This compound gave a TGI in the assay on UACC-62 melanoma of more than 100 µM.

With `COc1cc2cccc(N)c2cc1OC`, the TGI in the assay on OVCAR-5 ovarian, in the assay on OVCAR-4 ovarian, with U251 CNS, in the assay with MCF7 breast, with HCC-2998 colon and in the assay on K-562 leukemia was more than 100 µM throughout. For the same compound, the TGI in the assay on RXF 393 renal is more than 100 µM; in the assay on T-47D breast it was more than 100 µM; in the assay with 786-0 renal, more than 100 µM; with BT-549 breast it was more than 92.6 µM; in the assay with A549 NSCLC, more than 100 µM; in the assay on MALME-3M melanoma, more than 100 µM. In the assay on UACC-62 melanoma, the TGI was more than 100 µM.

For the compound `Cc1ccc(Nc2c(C#N)[n+]([O-])c3cc(Cl)ccc3[n+]2[O-])cc1`, the TGI in the assay on OVCAR-5 ovarian, in the assay on OVCAR-4 ovarian, in the assay with U251 CNS, with MCF7 breast, in the assay with HCC-2998 colon and in the assay on K-562 leukemia was more than 100 µM in each case. The TGI in the assay with RXF 393 renal, with T-47D breast, in the assay with 786-0 renal, in the assay on BT-549 breast, in the assay with A549 NSCLC and in the assay with MALME-3M melanoma was more than 100 µM in each case. Besides, the TGI in the assay on UACC-62 melanoma was more than 100 µM.

Consider `C=CCSC1=N/C(=C\c2cccs2)C(=O)N1CC=C`, for which the TGI in the assay with OVCAR-5 ovarian, in the assay on OVCAR-4 ovarian, in the assay on U251 CNS, with MCF7 breast, in the assay on HCC-2998 colon and in the assay on K-562 leukemia was more than 100 µM each time. Moreover, the TGI in the assay on RXF 393 renal was 64.2 µM; in the assay on T-47D breast it was 69.3 µM; in the assay with 786-0 renal, more than 100 µM; with BT-549 breast, more than 100 µM; in the assay on A549 NSCLC, more than 100 µM; in the assay on MALME-3M melanoma it was more than 100 µM. Further, the TGI in the assay on UACC-62 melanoma was more than 100 µM.

For `CCN1C(=O)C(C)S/C1=N\NC(=O)CSc1nc2ccccc2c(=O)n1CC` (stereo not given), the TGI in the assay with OVCAR-5 ovarian, in the assay with OVCAR-4 ovarian, with U251 CNS, in the assay with MCF7 breast, with HCC-2998 colon and in the assay with K-562 leukemia was more than 100 µM in each case. The TGI in the assay with RXF 393 renal, in the assay with T-47D breast, with 786-0 renal, in the assay with BT-549 breast, in the assay on A549 NSCLC and in the assay on MALME-3M melanoma was more than 100 µM throughout. Besides, the TGI in the assay on UACC-62 melanoma was more than 100 µM.

Regarding `Cc1ccc(-c2cc(C(F)(F)F)nn2-c2ccc(S(N)(=O)=O)cc2)cc1`, the TGI with OVCAR-5 ovarian is more than 59.8 µM; in the assay with OVCAR-4 ovarian, 46.4 µM; with U251 CNS it was more than 54.5 µM; with MCF7 breast it was more than 58.4 µM; with HCC-2998 colon, 33.1 µM; with K-562 leukemia, more than 50.6 µM. For the same compound, the TGI is 36 µM in the assay with RXF 393 renal; more than 61.8 µM in the assay on T-47D breast; more than 89.2 µM in the assay with 786-0 renal; 32.1 µM with BT-549 breast; more than 52.6 µM in the assay on A549 NSCLC; 46.6 µM in the assay on MALME-3M melanoma. Moreover, the TGI in the assay with UACC-62 melanoma is more than 53.6 µM.

Consider `COC(=O)/C=C1/CCC(C)(C(=O)NS(=O)(=O)c2ccc(C)cc2)C1(C)C` (stereo not given), for which the TGI with OVCAR-5 ovarian, in the assay on OVCAR-4 ovarian, in the assay on U251 CNS, in the assay with MCF7 breast, in the assay with HCC-2998 colon and in the assay with K-562 leukemia was more than 100 µM throughout. For the same compound, the TGI in the assay with RXF 393 renal, in the assay with T-47D breast, in the assay with 786-0 renal, with BT-549 breast, in the assay with A549 NSCLC and in the assay with MALME-3M melanoma was more than 100 µM throughout. This compound also had a TGI with UACC-62 melanoma of more than 100 µM.

Regarding `CC(=O)Oc1ccccc1/C=C/C(=O)/C=C/c1ccccc1OC(C)=O`, the TGI in the assay with OVCAR-5 ovarian worked out at 4.35 µM; in the assay on OVCAR-4 ovarian, 10.2 µM; in the assay on U251 CNS it was 3.18 µM; in the assay on MCF7 breast, 4.99 µM; in the assay on HCC-2998 colon it was 4.18 µM; in the assay with K-562 leukemia, 4.53 µM. In addition, the TGI in the assay with RXF 393 renal was 1.65 µM; in the assay with T-47D breast, 34.9 µM; in the assay on 786-0 renal, 3.71 µM; in the assay on BT-549 breast, 3.97 µM; with A549 NSCLC it was 6.37 µM; in the assay on MALME-3M melanoma it was 6.11 µM. In addition, the TGI in the assay on UACC-62 melanoma was found to be 3.48 µM.

As to `O=C(Nc1ccccc1)N(C1=NCC(CI)S1)c1ccc(F)cc1F` (stereo not given), the TGI with OVCAR-5 ovarian, with OVCAR-4 ovarian, with U251 CNS, with MCF7 breast, in the assay on HCC-2998 colon and in the assay on K-562 leukemia was more than 100 µM throughout. The TGI was more than 100 µM with RXF 393 renal; more than 100 µM in the assay on T-47D breast; more than 100 µM with 786-0 renal; 89.4 µM in the assay on BT-549 breast; more than 100 µM with A549 NSCLC; more than 100 µM in the assay with MALME-3M melanoma. In the assay with UACC-62 melanoma, this compound displayed a TGI of more than 100 µM.

For the compound `CCCCCCOc1ccc(C(=O)NO)cc1`, the TGI in the assay with OVCAR-5 ovarian is 40.4 µM; with OVCAR-4 ovarian, more than 66.3 µM; with U251 CNS, 28.9 µM; in the assay on MCF7 breast, more than 100 µM; in the assay on HCC-2998 colon, 28.3 µM; with K-562 leukemia, 57.7 µM. The TGI amounted to 30.1 µM with RXF 393 renal; 41.3 µM in the assay with T-47D breast; 16.6 µM with 786-0 renal; 72.8 µM in the assay with BT-549 breast; 43.3 µM with A549 NSCLC; 34.4 µM with MALME-3M melanoma. The TGI with UACC-62 melanoma worked out at 20.6 µM.
